Source: patent US9580444B2, “Polycyclic pyrazolinone derivative and herbicide comprising same as effective component thereof” (priority 2013, dated 2017)

Legend:
Type in all cases: in vivo
[1] = tested on: Abutilon theophrasti (velvetleaf); assay: Test Example-5: herbicidal effect by a foliage treatment after weeds are generated under upland field conditions; details: 12.5 g a.i/ha, foliage treatment after emergence, about 14 days after treatment, score 0-5
Description: (§1) Using the formulation prepared according to the methods described above, the herbicidal effect of the bicyclic pyrazolinone derivative of the invention according to the methods shown in Test Examples below was examined. The herbicidal effect with respect to the test weeds or the phytotoxicity with respect to the test crops was examined according to the following criteria, and evaluated in six stage scores of 0 to 5. A vat having an area of 81 cm^2 and a depth of 3.5 cm was filled with upland soil, then, seeds of Ipomoea purpurea (tall morning glory), Amaranthus viridis (green amaranthus), Abutilon theophrasti (velvetleaf), Chenopodium album (common lambsquarters), and corn were seeded thereto, and the seeds were covered with soil of about 0.5 cm. While watering was suitably performed on there, the seeds were grown for 14 days. A wettable powder or an emulsifiable concentrate of the compound of the present invention prepared according to Formulation Example was diluted, and a spray treatment was uniformly performed on the foliage portion of the plant so as to be a predetermined dosage in the amount of water of 4000 L per hectare. The herbicidal effect with respect to the test weeds and the phytotoxicity with respect to corn about 14 days after the treatment were evaluated according to the evaluation criteria in six stages of 0 to 5 described above.

[2] = tested on: Amaranthus viridis (green amaranthus); assay: as above; details: 12.5 g a.i/ha, foliage treatment after emergence, about 14 days after treatment, score 0-5
Description: as §1

[3] = tested on: Chenopodium album (common lambsquarters); assay: as above; details: 12.5 g a.i/ha, foliage treatment after emergence, about 14 days after treatment, score 0-5
Description: as §1

[4] = tested on: Ipomoea purpurea (tall morning glory); assay: as above; details: 12.5 g a.i/ha, foliage treatment after emergence, about 14 days after treatment, score 0-5
Description: as §1

corn [5] = assay: Test Example-4: phytotoxicity by a foliage treatment after weeds are generated under upland field conditions; details: 500 g a.i/ha, foliage treatment after emergence, about 14 days after treatment, score 0-5
How it was run: (§2)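 Sown seeds, under about 0.5 cm of soil cover in upland soil, grew for 14 days before compound application. A wettable powder or emulsifiable concentrate, diluted to a predetermined dosage, was sprayed over foliage in 4000 L/ha water, with scoring on a 0–5 scale after roughly 14 days.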

[6] = tested on: Abutilon theophrasti (velvetleaf); assay: Test Example-3: herbicidal effect by a treatment before weeds are generated under upland field conditions; details: 50 g a.i/ha; upland soil treatment before emergence; about 21 days after treatment; score 0-5
Description: as §1, with “Next day, a” for “While watering was suitably performed on there, the seeds were grown for 14 days. A”, “covered oil” for “foliage portion of the plant”, “dosage.” for “dosage in the amount of water of 4000 L per hectare.”, “21” for “14”

[7] = tested on: Amaranthus viridis (green amaranthus); assay: as above; details: 50 g a.i/ha; upland soil treatment before emergence; about 21 days after treatment; score 0-5
Description: as §1, with “Next day, a” for “While watering was suitably performed on there, the seeds were grown for 14 days. A”, “covered oil” for “foliage portion of the plant”, “dosage.” for “dosage in the amount of water of 4000 L per hectare.”, “21” for “14”

[8] = tested on: Chenopodium album (common lambsquarters); assay: as above; details: 50 g a.i/ha; upland soil treatment before emergence; about 21 days after treatment; score 0-5
Description: as §1, with “Next day, a” for “While watering was suitably performed on there, the seeds were grown for 14 days. A”, “covered oil” for “foliage portion of the plant”, “dosage.” for “dosage in the amount of water of 4000 L per hectare.”, “21” for “14”

[9] = tested on: Ipomoea purpurea (tall morning glory); assay: as above; details: 50 g a.i/ha; upland soil treatment before emergence; about 21 days after treatment; score 0-5
Description: as §1, with “Next day, a” for “While watering was suitably performed on there, the seeds were grown for 14 days. A”, “covered oil” for “foliage portion of the plant”, “dosage.” for “dosage in the amount of water of 4000 L per hectare.”, “21” for “14”

corn [10] = assay: Test Example-5: phytotoxicity by a foliage treatment after weeds are generated under upland field conditions; details: 12.5 g a.i/ha, foliage treatment after emergence, about 14 days after treatment, score 0-5
Description: as §1

[11] = tested on: Abutilon theophrasti (velvetleaf); assay: Test Example-4: herbicidal effect by a foliage treatment after weeds are generated under upland field conditions; details: 500 g a.i/ha, foliage treatment after emergence, about 14 days after treatment, score 0-5
How it was run: as §2

[12] = tested on: Amaranthus viridis (green amaranthus); assay: as above; details: 500 g a.i/ha, foliage treatment after emergence, about 14 days after treatment, score 0-5
How it was run: as §2

[13] = tested on: Chenopodium album (common lambsquarters); assay: as above; details: 500 g a.i/ha, foliage treatment after emergence, about 14 days after treatment, score 0-5
How it was run: as §2

corn [14] = assay: Test Example-3: phytotoxicity by a treatment before weeds are generated under upland field conditions; details: 50 g a.i/ha; upland soil treatment before emergence; about 21 days after treatment; score 0-5
Description: as §1, with “Next day, a” for “While watering was suitably performed on there, the seeds were grown for 14 days. A”, “covered oil” for “foliage portion of the plant”, “dosage.” for “dosage in the amount of water of 4000 L per hectare.”, “21” for “14”

## COC(=O)C=C(COc1cc(-c2c(Cl)n3n(c2=O)CCOCC3)c(F)cc1Cl)OC (mixture of isomers) [Example 2-3]
[1]
  Herbicidal effect Abutilon theophrasti: 5 (Herbicidal effect/phytotoxicity was 90% or greater)
[2]
  Herbicidal effect Amaranthus viridis: 5 (Herbicidal effect/phytotoxicity was 90% or greater)
[3]
  Herbicidal effect Chenopodium album: 5 (Herbicidal effect/phytotoxicity was 90% or greater)
[4]
  Herbicidal effect Ipomoea purpurea: 5 (Herbicidal effect/phytotoxicity was 90% or greater)
Corn [5]
  Phytotoxicity Corn: 1 (Herbicidal effect/phytotoxicity was 10% to 30%)
[6]
  Herbicidal effect Abutilon theophrast: 5 (Herbicidal effect/phytotoxicity was 90% or greater)
[7]
  Herbicidal effect Amaranthus viridis: 5 (Herbicidal effect/phytotoxicity was 90% or greater)
[8]
  Herbicidal effect Chenopodium album: 4 (Herbicidal effect/phytotoxicity was 70% to 90%)
[9]
  Herbicidal effect Ipomoea purpurea: 2 (Herbicidal effect/phytotoxicity was 30% to 50%)
Corn [10]
  Phytotoxicity Corn: 0 (Herbicidal effect/phytotoxicity was 0% to 10%)
[11]
  Herbicidal effect Abutilon theophrast: 5 (Herbicidal effect/phytotoxicity was 90% or greater)
[12]
  Herbicidal effect Amaranthus viridis: 5 (Herbicidal effect/phytotoxicity was 90% or greater)
[13]
  Herbicidal effect Chenopodium album: 5 (Herbicidal effect/phytotoxicity was 90% or greater)
Corn [14]
  Phytotoxicity Corn: 0 (Herbicidal effect/phytotoxicity was 0% to 10%)
